# In patent US20230286927A1, “2-PHENYLBENZOTRIAZOL-5-AMINE DERIVATIVES FOR THE TREATMENT AND PROPHYLAXIS OF HEPATITIS B VIRUS (HBV) INFECTION” (priority 2020, published 2023):
# Tests used:
# HBeAg = test: PHH natural infection assay, HBeAg (alphalisa); format: cell-based, HBV; conditions: Hepatitis B virus, Hepatocyte, 72 h, read-out: HBeAg IC50
# Procedure: (§1) Detailed procedures regarding primary human hepatocyte (PHH) HBV natural infection assay are described as below. One tube of frozen PHH (10 million cells) is thawed in 37° C. water bath and then transferred to 20 mL of PHH thawing medium (Sigma, InVitroGRO HT Medium, Cat. S03319) with gently mixing. The cells were then centrifuged at […] for 5 min, the supernatant was discarded and the tube was refilled with 25 mL of PHH plating medium (Sigma, InVitroGRO CP Medium, Cat. S03317). The tube was shaken very gently to re-suspend all cells, and then 50 μl of cells were transferred to each well 384-well collagen I coated plate with appropriate liquid handling equipment, e.g. Integra VIAFLO384 or Agilent Bravo. The cells were then cultured for 24 hours in a cell incubator. For HBV infection, after PHH attachment on the culture plate, the plating medium was removed and replenished with PHH culture medium containing HBV virus. The PHH culture medium was prepared with Dulbecco's Modified Eagle Medium (DMEM)/F12 (1:1 in volume ratio) containing 10% fetal bovine serum (Gibco, Cat. 10099141), 5 ng/mL human epidermal growth factor (Gibco, Cat.PHG031IL), 20 ng/mL dexamethasone (Sigma, Cat.D4902-100 mg), 250 ng/mL human recombinant insulin (Gibco, Cat.41400045) and 100 U/mL penicillin. HBV virus at 200 genome equivalent (GE) per cell with 4% PEG8000 (Sigma, Cat.P1458) containing culture medium were added to the PHH culture medium for infection. The cells were then cultured for 24 hours in cell incubator. Then the cell culture supernatant was removed. The HBV-infected PHH were cultured with sandwich culture method with PHH culture medium containing 1% DMSO and 0.25 mg/mL matrix gel for 72 hours. The supernatant was then refreshed with PHH culture medium containing different concentrations of testing compounds for two times with 72-hour interval. At the end of treatment, the supernatant was collected for viral markers measurements, including HBsAg, HBeAg, HBV DNA and cytotoxicity. HBsAg and HBeAg were detected using alphalisa method using their specific antibodies. For HBV DNA detection, HBV DNA Quantitative Fluorescence Diagnostic Kit (Sansure Biotech Inc.) was used following the manufacture's protocol. Cytotoxicity was determined using Cell Counting Kit-8 (CCK8, Dojindo Molecular Technologies, Inc.).
# (§2) The compounds of the present invention were tested for their capacity to inhibit HBsAg and HBeAg as described herein.
# [1] = Cytotoxicity in PHH natural infection assay (Cell Counting Kit-8); format: cell-based; conditions: HBV-infected primary human hepatocytes, CCK8
# Procedure: as §1
# HBsAg = test: PHH natural infection assay, HBsAg (alphalisa); format: cell-based, HBV; conditions: Hepatitis B virus, Hepatocyte, 72 h, read-out: HBsAg IC50
# Procedure: as §1, §2
SMILES,IC50 (HBeAg),CC50 at 144 h [1],IC50 (HBsAg)
"CCN(CC)c1ccc2nn(-c3ccc(Cl)cc3)nc2c1 [Example 34, 2-(4-Chlorophenyl)-N,N-diethyl-benzotriazol-5-amine]",2.5 µM,> 100 µM,1.8 µM
"O=C(Nc1ccc2nn(-c3ccc(Cl)cc3)nc2c1)C1CCOC1 (stereo not drawn) [Example 48, N-[2-(4-chlorophenyl)benzotriazol-5-yl]tetrahydrofuran-3-carboxamide]",3.12 µM,> 100 µM,4.81 µM
"Clc1ccc(-n2nc3ccc(NCC4CCCO4)cc3n2)cc1 (stereo not drawn) [Example 27, 2-(4-Chlorophenyl)-N-(tetrahydrofuran-2-ylmethyl)benzotriazol-5-amine]",11.7 µM,> 100 µM,6.07 µM
"Cc1cc2nn(-c3ccc(Cl)cc3)nc2cc1NC(=S)NC(=O)c1ccccc1 [Example 59, N-[[2-(4-chlorophenyl)-6-methyl-benzotriazol-5-yl]carbamothioyl]benzamide]",3.04 µM,> 100 µM,1.11 µM
"NC(=S)Nc1ccc2nn(-c3ccc(Cl)cc3)nc2c1 [Example 53, [2-(4-Chlorophenyl)benzotriazol-5-yl]thiourea]",2.87 µM,> 100 µM,3.37 µM
"O=C(Nc1ccc2nn(-c3ccc(F)cc3)nc2c1)C1CCCC1 [Example 43, N-[2-(4-fluorophenyl)benzotriazol-5-yl]cyclopentanecarboxamide]",12.8 µM,> 100 µM,8.2 µM
"COc1ccc(-n2nc3ccc(N)cc3n2)cc1 [Example 3, 2-(4-Methoxyphenyl)benzotriazol-5-amine]",1.7 µM,> 100 µM,1.5 µM
"Clc1ccc(-n2nc3ccc(NCC4CCOC4)cc3n2)cc1 (stereo not drawn) [Example 23, 2-(4-Chlorophenyl)-N-(tetrahydrofuran-3-ylmethyl)benzotriazol-5-amine]",7.67 µM,> 100 µM,4.92 µM
"COCCS(=O)(=O)c1ccc(-n2nc3ccc(N)cc3n2)cc1 [Example 9, 2-[4-(2-Methoxyethylsulfonyl)phenyl]benzotriazol-5-amine]",7.93 µM,> 100 µM,4.07 µM
"COCCCNc1ccc2nn(-c3ccc(F)cc3)nc2c1 [Example 22, 2-(4-Fluorophenyl)-N-(3-methoxypropyl)benzotriazol-5-amine]",6.4 µM,> 100 µM,3.27 µM
"Clc1ccc(-n2nc3ccc(NCC4CCCC4)cc3n2)cc1 [Example 26, 2-(4-Chlorophenyl)-N-(cyclopentylmethyl)benzotriazol-5-amine]",3.08 µM,> 100 µM,8.79 µM
"Clc1ccc(-n2nc3ccc(NC4CCC4)cc3n2)cc1 [Example 29, 2-(4-Chlorophenyl)-N-cyclobutyl-benzotriazol-5-amine]",9.23 µM,> 100 µM,5.55 µM
"O=C(Nc1ccc2nn(-c3ccc(Cl)cc3)nc2c1)C1CCCCO1 (stereo not drawn) [Example 46, N-[2-(4-chlorophenyl)benzotriazol-5-yl]tetrahydropyran-2-carboxamide]",1.14 µM,> 100 µM,2.68 µM
"CNC(=S)Nc1ccc2nn(-c3ccc(Cl)cc3)nc2c1 [Example 54, 1-[2-(4-chlorophenyl)benzotriazol-5-yl]-3-methyl-thiourea]",4.59 µM,> 100 µM,2.68 µM
"O=C(Nc1ccc2nn(-c3ccc(Cl)cc3)nc2c1)C1CCCO1 (stereo not drawn) [Example 50, N-[2-(4-chlorophenyl)benzotriazol-5-yl]tetrahydrofuran-2-carboxamide]",1.37 µM,> 100 µM,1.26 µM
